Reference: patent US8101212B2, “Bioactive botanical cosmetic compositions and processes for their production” (Akzo Nobel Surface Chemistry LLC, priority 2002, dated 2012)
Values after ≈ are worked out from the molar mass of the structure shown.

Assays:
[1] = Superoxide scavenging activity (xanthine oxidase system, cytochrome c reduction); assay type: biochemical
Excerpt: Reactive oxygen species generated by activated inflammatory cells (endogenous or exogenous) create specific oxidant which was used to provide the measurements of superoxide scavenging activity. The assay used for evaluation of superoxide scavenging activity relates to the one form of antioxidant activity, which is of benefit in neutralizing the damage associated with oxidation. To generate superoxide anions in high yield and in a controlled fashion, an enzymatic system (xanthine oxidase) was used. The conversion of […] by this enzyme generates amounts of superoxide anions, which are stoichiometric with the amount of substrate provided. The assay used was based on the reduction of cytochrome c from its ferric to ferrous form as a sensitive measure of superoxide levels. […] Method 7: Method for Determination of Superoxide Scavenging Activity. The enzymatic system, which uses xanthine oxidase (a purified enzyme preparation produced by “Sigma”), was used to generate superoxide anions in high yield and in a controlled fashion. The conversion of xanthine to hydroxanthine by this enzyme generates amounts of superoxide anions and reduction of ferricytochrome c to ferrocytochrome c was used as a sensitive measure of superoxide levels. […]

[2] = molecular target: T1, gelatinase B (MMP-9) (Homo sapiens, UniProt P14780); experiment: Gelatinase B inhibitory activity (MMP-9 Activity ELISA); assay type: biochemical
T1 construct: purchased Amersham Pharmacia
Excerpt: Neutrophils contain two major enzymes from the class of matrix metalloproteinases, which collectively are implicated in extensive connective tissue destruction: neutrophil collagenase (MMP-8) and gelatinase B (MMP-9). Because elastase has poor activity against native collagen, and neutrophil collagenase alone cannot solubilize the connective tissue protein by itself, gelatinase B is considered as a major contributor to inflammatory injury to the extracellular matrix. A specific assay for this enzyme was used to evaluate the potential of cosmetic botanical ingredients to inhibit degradation of the extracellular matrix mediated by inflammatory cell-derived matrix metalloproteinases. Gelatinase B activity was detected by hydrolysis of a low molecular weight synthetic substrate (APMA). Inhibitors of gelatinase B diminish the accelerating rate of enzyme reaction product formation in a dose-dependent fashion. Such enzyme inhibition was found when tested cosmetic ingredients were added to the reaction mixture. Method 6: Method for Determination of Gelatinase B Inhibitory Activity. […] The enzymatic activity was detected at 405 nm by hydrolysis of a low molecular weight synthetic substrate for Gelatinase B: APMA. […]

[3] = test system: 3T3 fibroblasts; experiment: Neutral red uptake (NRU) cytotoxicity test; assay type: cell-based; design: key to Cell Morphology: NCM: Normal Cell Morphology; MLT: Moderate Level of Toxicity
Excerpt: As an example, a test involving neutral red uptake (NRU) by 3T3 fibroblasts, which is commonly used for determination of cytotoxicity, was utilized to assess cytotoxicity of cosmetic botanical ingredients. The NRU value is proportional to the number of viable cells in this in vitro test population.

T1 sequence (P14780 94-707): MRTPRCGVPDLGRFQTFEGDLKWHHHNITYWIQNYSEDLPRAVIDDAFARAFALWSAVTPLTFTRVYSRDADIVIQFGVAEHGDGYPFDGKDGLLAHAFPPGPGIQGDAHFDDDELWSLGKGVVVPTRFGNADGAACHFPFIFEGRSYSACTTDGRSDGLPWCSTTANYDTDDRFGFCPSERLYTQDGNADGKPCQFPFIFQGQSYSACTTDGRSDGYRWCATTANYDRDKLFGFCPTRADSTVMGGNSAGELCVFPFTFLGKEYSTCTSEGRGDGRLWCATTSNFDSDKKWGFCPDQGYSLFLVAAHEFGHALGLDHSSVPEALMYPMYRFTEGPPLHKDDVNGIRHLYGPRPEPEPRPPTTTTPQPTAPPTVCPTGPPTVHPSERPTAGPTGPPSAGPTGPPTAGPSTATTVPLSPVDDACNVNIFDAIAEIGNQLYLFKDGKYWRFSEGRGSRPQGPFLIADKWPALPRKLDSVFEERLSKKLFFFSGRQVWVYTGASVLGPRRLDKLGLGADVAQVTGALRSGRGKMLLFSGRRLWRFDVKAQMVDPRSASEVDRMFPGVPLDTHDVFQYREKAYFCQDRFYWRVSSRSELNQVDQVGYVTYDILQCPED

Compound | ICR50 ([1]; Table 29) | IC50 (superoxide scavenging activity) ([1]; Tables 35 and 36) | IC50 [2] | inhibition at 100 µg/mL ([2]; read-out: % Inhibition [100 μg/ml]) | NRU50 of positive control [3] | Cell Morphology ([3]; Table 27) | Cell Morphology ([3]; Table 28, marigold flower products) | NRU50 ([3]; Tables 27 and 28)
O=C(/C=C/c1ccc(O)c(O)c1)O[C@H](Cc1ccc(O)c(O)c1)C(=O)O [Rosmarinic Acid, rosmarinic acid] | 26.5 μg Dry Matter/mL | 26.5 µg/mL (≈ 73.5 µM) | 83.3 µM | 91% | – | – | – | –
EGF: Epidermal Growth Factor (EGF) used as a positive control | – | – | – | – | > 2,500 μg/ml | NCM | NCM | >2,500 μg Dry Matter/mL
